What was measured:
[1] = Metabolite analysis after incubation in human serum or plasma (QC radio-HPLC); type: in vitro ADME; conditions: 37° C., upto 1 h
Description: Oxidative imbalance and functional impairment of mitochondria may mediate pathogenesis of neurodegenerative diseases and mitochondria are among the prominent intracellular site for ROS generation. Thus, a 2nd generation redox-sensitive neuroROS tracer was designed (also identified as either as SLN 128 or 12 (noncarrier added) or ^18F-13 (PET tracer); see e.g., FIG. 2) for the detection of total ROS within cells undergoing pro-oxidative stage. While the unlabeled/noncarrier counterpart of the probe 12 was synthesized and characterized through standard analytical methods (Proton NMR, proton-decoupled 13C-NMR, HRMS, Elemental analysis), the carrier added ^18F-13 (Lab ID:18F-SLN128) was synthesized through a reaction between the tosylated precursor 11 and KF{18F}-/Kryptofix 222 and followed by deprotection of methoxymethyl ether 11 in situ with TFA as shown (see e.g., FIG. 2), purified on semipreparatory C-18 column, the desired fraction with a Rt=12 min was collected, concentrated, reconstituted in 5% ethanol/95%sterile saline and analyzed for purity on QC radio-HPLC (radiochemical yield: 15-20%; radiochemical purity >99%; specific activity:1400-1700 Ci/mmole) and identified by spiking with the noncarrier added/unlabeled counterpart. […] For analysis of metabolites, ^18F-SLN-128 was incubated with either human serum or plasma at 37° C. as a function of time and analyzed on QC Radio-HPLC.

[2] = Dynamic PET/MR brain imaging of normal rhesus monkey; type: in vivo
Description: FIG. 12A-FIG. 12B is an exemplary embodiment showing dynamic MR/PET brain imaging of normal rhesus monkey (10 Kg) following intravenous injection of 18F-SLN-128 (5.8 mCi) over 2 h in accordance with the present disclosure. FIG. 12A includes images showing summation of PET data over 10 min and co-registered with T2-weighted MR image of the monkey for anatomical reference. FIG. 12B is a line graph showing SUVs as a time-activity curve for the tracer influx and clearance from important regions of the brain.
Of note, these NHP brain SUV values are 2.5-fold higher than reported for ^18F-ROStrace thus likely to translate into higher contrast brain images compared with ^18F-ROStrace (SUV=1.35). […] Tissue time-activity curves (TACs) also show fast initial uptake with maximum projection of activity at 7-10 min followed by clearance of ^18F-SLN-128 at later time-points from amygdala, caudate, cerebellum, cortex (frontal, insular, occipital and temporal), cerebellum, hippocampus, putamen, thalamus, and white matter of rhesus monkey brain.

Structure (SMILES): COc1ccc2c(c1)N(C)C(c1ccc(O)c(OCC[18F])c1)c1cccn1-2 (stereo not shown) [18F-SLN-128]
- metabolic stability in human serum [1]: remains non-metabolized
- clearance from brain regions ([2]; later time points): excreted from critical regions at later-time points
- nonspecific retention in normal monkey brain ([2]; over 2 h): Insignificant nonspecific retention
- time of maximum SUV ([2]; rhesus monkey): 7 to 10 min
- NHP brain SUV relative to 18F-ROStrace ([2]; rhesus monkey, in vivo): 2.5 fold
- maximum Standard Uptake Value (SUV) in brain ([2]; rhesus monkey, intravenous injection): 3.5
- metabolites in venous blood (radio-HPLC, γ-counter) ([2]; samples at an interval of 3 min over 2 hours): did not show any metabolite
